# Assay results as given in PubChem BioAssay AID720512 (Broad Institute, 2013).
# Activity calls are given as the source filed them. The rule behind the calls is not given here.
# Target: Toxin B (TcdB) glycohydrolase, Clostridioides difficile 630
# Test: TcdB glycohydrolase inhibitors, dose response, biochemical, cherry-pick, plate reader (AID 720512)
# Conditions: recombinant TcdB glycohydrolase activity
row,Compound,AC50
1,Cn1c(=O)c2[nH]c(=S)n(Cc3ccccc3)c2n(C)c1=O,18.2 µM
2,COCC(=O)N1CC[C@@H]2[C@H]1c1cc(-c3ccc(OC)cc3)ccc1N(C)[C@H]2CO,> 39 µM (inactive)
3,O=C(CCn1c(=O)oc2cc(Cl)ccc21)Nc1ccc(O)cc1,> 20 µM (inactive)
4,CCCNC(=O)C[C@H]1CC[C@@H]2[C@@H](COc3ccc(NC(=O)c4ccc(Cl)cc4)cc3C(=O)N2C)O1,> 39 µM (inactive)
5,Nc1ccc(OCCCc2c(N)nc(N)nc2N)cc1,> 39 µM (inactive)
6,S=C(NCCN1CCOCC1)Nc1ccc(Nc2ccccc2)cc1,> 39 µM (inactive)

# Same assay, conditions: recombinant TcdB glycohydrolase activity, at 10 µM (top of the series)
row,Compound,"activity change, negative = inhibition"
1,O=c1c(OC2OC(CO)C(O)C(O)C2O)c(-c2ccc(O)c(O)c2)oc2cc(O)cc(O)c12 (stereo not given),inactive

# Same assay, conditions: recombinant TcdB glycohydrolase activity, at 19.5 µM (top of the series)
row,Compound,"activity change, negative = inhibition"
1,CC(=O)Nc1cc(-c2ccc(F)cc2)[nH]n1,inactive
2,Cc1ccc(C(=O)COC(=O)c2cc(=O)[nH]c3ccccc23)cc1,inactive
3,COc1cc(C(=O)Nc2scc(-c3ccccc3)c2C(=O)O)cc(OC)c1OC,inactive
4,COc1c2ccc(C(=O)NCCCCc3ccccc3)cc2nn1C,inactive
5,O=C(C[C@H]1CC[C@@H]2[C@H](COC[C@@H](O)CN2C(=O)c2ccccn2)O1)NC1CCC1,inactive
6,CC(=O)Nc1ccc(S(=O)(=O)N2CCCC(C(=O)O)C2)cc1 (stereo not given),inactive
7,CC1(C)Cc2nc(Cl)c(C#N)cc2CO1,inactive
8,CCCn1c(N)c(C(=O)COC(=O)c2cccc(S(=O)(=O)N3CCOCC3)c2)c(=O)[nH]c1=O,inactive
9,CCCCN(C)c1c(C)nc2ccc(C(=O)NCc3cccs3)cn12,inactive
10,CC1(C)CC(=O)C(C=Nc2ccc(N)cc2)=C(O)C1,inactive
11,Nc1ccc(Sc2ccc(N)cc2)cc1,inactive
12,O=C(NCc1ccccc1)C1Cc2c(-c3cccc(F)c3)ccnc2O1 (stereo not given),inactive
13,CCOC(=O)c1ccc2ncc(-c3ccccc3)nc2c1,inactive
14,COc1cc(/C=N/NC2=NCCCCC2)ccc1O,inactive
15,O=C(O)c1ccc(-n2nnc3ccccc32)c([N+](=O)[O-])c1,inactive
16,Cc1ccc(S(=O)(=O)Oc2ccccc2/C=C2\SC(=O)NC2=O)cc1,inactive
17,Cc1ccc(S(=O)(=O)N2CCCC2C(=O)Nc2ccc(O)cc2)cc1 (stereo not given),inactive
18,COc1cccc(C(=O)Nc2ccc3c(c2)C(=O)N(C)[C@@H]2CC[C@H](CC(=O)NCCCN4CCOCC4)O[C@@H]2CO3)c1,inactive
19,N#CCCN(C(=O)COC(=O)c1cc(=O)c2ccccc2o1)c1ccccc1,inactive
20,COc1ccc(/C=C2\CCC(C3CCCC3)C2=O)cc1 (stereo not given),inactive
21,CCCCc1[nH]c(=O)c(C#N)c2c1CCCC2,inactive
22,COc1ccc(CNC(=O)C2CCN(S(=O)(=O)c3c(C)noc3/C=C/N(C)C)CC2)cc1,inactive
23,COc1ccc(/C=C2/C(=O)C(C)(C(C)C)CCC2C)cc1 (stereo not given),inactive
24,CC1C(=O)NN=C1c1ccc([N+](=O)[O-])cc1 (stereo not given),inactive

row,Compound,"activity change, negative = inhibition"
1,CC(C)OC(=O)c1cccc(C(=O)O)n1,inactive
2,Cn1cnnc1SCC(=O)NC1CCCCC1,inactive
3,Cc1cnc(C(=O)OCC(=O)N2C(C)CCCC2C)cn1 (stereo not given),inactive
4,COc1nc(C)cc(C)c1S(=O)(=O)c1ccc(Cl)cc1,inactive
5,Cc1[nH]nc(-c2ccc(O)cc2O)c1Oc1ccccc1,inactive
6,C=CCc1ccc(O)c(-c2ccc(O)c(CC=C)c2)c1,inactive
7,CNC(=O)C[C@H]1CC[C@@H]2[C@H](COc3ccc(NC(=O)Nc4ccc(C)cc4)cc3C(=O)N2C)O1,inactive
8,CCC(=O)Nc1ccc2c(c1)OC[C@@H](C)N(C(=O)NC(C)C)C[C@H](C)[C@H](OC)CN(C)C2=O,inactive
9,Cc1nc(SCC(=O)N2CCNC2=O)c(C#N)c(C)c1C,inactive
10,O=C(COc1ccc2ccc(=O)oc2c1)NCCN1CCOCC1,inactive
11,Cc1c(-n2c(O)c(C3=c4ccccc4=NC3=O)sc2=S)c(=O)n(-c2ccccc2)n1C,inactive
12,FC(F)(F)c1cc(Cl)c2nc(-c3ccccc3)c(Cc3ccsc3)n2c1,inactive
13,COc1cc(/C=C/C(=O)OCC(=O)c2ccc[nH]2)ccc1O,inactive
14,O=C(C[C@@H]1CC[C@H]2[C@@H](COC[C@@H](O)CN2Cc2ccc(Oc3ccccc3)cc2)O1)Nc1nccs1,inactive
15,Nc1ncnc2[nH]c(=S)[nH]c12,inactive
16,O=C(C[C@@H]1C[C@H]2c3cc(NC(=O)c4ccc5c(c4)OCO5)ccc3O[C@H]2[C@H](CO)O1)NCc1cccc(F)c1,inactive
17,Cn1cc(S(=O)(=O)CC(=O)N2CCCc3ccccc32)c2ccccc21,inactive
18,CC(=O)Nc1ccc(NC(=O)[C@@H]2CCCN2S(=O)(=O)c2ccc3c(c2)OCCO3)cc1,inactive
19,CC(OC(=O)C1=COCCO1)C(=O)c1ccc(Br)cc1 (stereo not given),inactive
20,N#Cc1ccc(C(=O)N/N=C/c2cn(CC(=O)O)c3ccccc23)c(F)c1,inactive
21,Cc1nn(C)cc1-c1n[nH]c(=S)n1-c1ccc(F)cc1,inactive
22,COc1ccc(-c2ccc3c(c2)[C@H]2[C@H](CCN2C(=O)CN2CCOCC2)[C@@H](CO)N3)cc1,inactive
23,Cc1cc(-c2ccc(NS(=O)(=O)c3ccccc3)c(C)c2)ccc1NS(=O)(=O)c1ccccc1,inactive
24,CCOC(=O)c1ccc[n+](CC(=O)c2ccc(NC(=O)c3ccccc3)cc2)c1,inactive

row,Compound,"activity change, negative = inhibition"
1,Cc1cc(C(=O)N2CCN(Cc3ccccc3)CC2)ccc1[N+](=O)[O-],inactive
2,CCOC(=O)c1ccc(N=c2sc(C(=O)OC)cc(=O)n2CCCN2CCOCC2)cc1,inactive
3,Oc1ccc(Cc2ccc(Cl)cc2)c(O)c1,inactive
4,COc1ccc(C2=NS(=O)(=O)N(C)C(C(=O)NCc3ccc4c(c3)OCO4)=C2)cc1OC,inactive
5,CCCCCCCN1C(N(C)C)=NC[C@@H]1Cc1ccccc1,inactive
6,COc1ccc(C(=O)Nc2cc(Cl)ccc2C(=O)O)cc1,inactive
7,CC(C)(C)c1cc(Cl)c(O)c(NC(=S)NC(=O)c2cccnc2)c1,inactive
8,CCN(CC)CCNC(=O)C1CCN(S(=O)(=O)c2c(C)noc2/C=C/c2ccccc2F)CC1,inactive
9,Cc1ccc(C2=NS(=O)(=O)N(C)C(C(=O)NCc3ccc(F)cc3)=C2)cc1,inactive
10,CCCCn1c(-c2ccccc2C)nc2cc3[nH]c(=O)c(C(C)C)nc3cc21,inactive
11,Nc1ccc2c(c1)[nH]c(=O)c1cc(N)ccc12,inactive
12,COc1ccc(CNC(=O)C2=CC(c3ccc(OC)c(OC)c3)=NS(=O)(=O)N2C)cc1,inactive
13,CC(=O)Nc1n[nH]c(=S)s1,inactive
14,COc1ccc(Cl)cc1NC(=O)CSc1nnc(-c2ccco2)o1,inactive
15,O=C(NCCc1cccc(Cl)c1)c1ccc(Cl)c([N+](=O)[O-])c1,inactive
16,COc1ccc(NC(=O)CN(C)C(=O)c2cccc(NS(=O)(=O)c3ccc(Br)cc3)c2)cc1,inactive
17,O=C1NN=C2CCCCCCC12 (stereo not given),inactive
18,CN(C)CCNc1ccc(CO)c2sc3ccc(O)cc3c(=O)c12,inactive
19,O=C(N/C(=C\c1ccc(O)cc1)C(=O)N1CCCCC1)c1ccccc1,inactive
20,COc1ccccc1/C=C/c1onc(C)c1S(=O)(=O)N1CCC(C(=O)NC2CCCCCC2)CC1,inactive
21,CCNC(=O)C[C@H]1CC[C@@H]2[C@@H](COc3ccc(NC(C)=O)cc3C(=O)N2C)O1,inactive
22,Cc1cnc(C(=O)OCC(=O)Nc2ccc(OCc3ccccc3)cc2)cn1,inactive
23,CCCCn1c(CN2CCN(C(=O)c3ccco3)CC2)nc2c1c(=O)n(C)c(=O)n2C,inactive

# Same assay, conditions: recombinant TcdB glycohydrolase activity, at 21 µM (top of the series)
row,Compound,"activity change, negative = inhibition"
1,CC(=O)N1CC[C@@H]2[C@@H](CO)Nc3ccc(-c4ccccc4)cc3[C@@H]21,inactive
2,CCNC(=O)C[C@@H]1CC[C@H]2[C@@H](COc3ccc(NC(C)=O)cc3C(=O)N2C)O1,inactive
